Assay: xn = mol fraction of the nth substance listed
Conditions: Liquid

C=C [ethene] + CO
Conditions	mass density [kg/m3]
278.15 K, x1 = 0.147	742.3
278.15 K, x1 = 0.189	722.2
278.15 K, x1 = 0.295	675.3
278.15 K, x1 = 0.373	644.9
278.15 K, x1 = 0.989	322
283.65 K, x1 = 0.14	741.3
283.65 K, x1 = 0.221	706
283.65 K, x1 = 0.325	657.5
283.65 K, x1 = 0.432	610.9
283.65 K, x1 = 0.475	589.1
283.65 K, x1 = 0.984	258.5

Source: the NIST ThermoML archive (doi:10.1021/je050374d)
